Data published in patent EP0685467A1, “NOVEL PYRIMIDINE DERIVATIVE AND MEDICINAL COMPOSITION” (NKK CORPORATION, priority 1993, dated 1995).

What was measured:
rat aorta = experiment: Inhibitory activity of vasoconstriction: angiotensin II induced constriction of rat aorta rings (Magnus apparatus); type: cell-based; settings: constriction induced by 3 x 10⁻⁸ angiotensin II
Experimental: The applicability of the compound of the present invention was confirmed by the function to inhibit constriction of rat aorta induced by angiotensin II.
Stetharteries of Wistar male rats having body weights of 150 to 250 g (Japan Charles River Inc.) were excised. After the attached connective tissue was removed, the cavities of the veins were rubbed by yarn to remove the endothelial cells and prepare ring samples. The samples were suspended in a 5ml organ bath which was filled with Krebs-Henseleit solution (unit mM; NaCl = 118, KCl = 4.7, CaCl₂ = 2.55, MgSO₄ = 1.18, KH₂PO₄ = 1.18, NaHCO₃ = 24.88, glucose = 11.1) and held at 37°C and bubbled with 95% O₂-5% CO₂. After an initial tension of 1.5 g was applied and preincubation was carried out for 60 minutes, the compounds to be tested (3 x 10⁻⁸ or 1 x 10⁻⁸) were administered. After 15 minutes, 3 x 10⁻⁸ angiotensin II was accumulatively added and the reaction of constriction was measured. The rate of inhibition was evaluated by comparing the reaction of constriction, which had been previously measured, in the case of administration of 3 x 10⁻⁸ angiotensin II in the absence of the compounds to be tested.
The constriction of the samples was ionotropicaly measured using an isometric transducer (UL-10GR: Minebea) and amplifier (6M92: NEC SANEI) and recorded by a recticorder (RECTI-HORIZ-8K: NEC SANEI).

ICR male mice = experiment: Toxicity Example: intraperitoneal administration to mice; type: in vivo; settings: intraperitoneally, 500 mg/kg, 4- to 5-week-old ICR male mice
Experimental: The compounds of Examples 3, 19, 20, or 23 were intraperitoneally administered to 4- to 5-week-old ICR male mice in an amount of 500 mg/kg.

ICR male and female mice = experiment: Toxicity Example: oral administration to mice; type: in vivo; settings: orally, 1000 mg/kg, 6-week-old ICR male and female mice
Experimental: The compounds of Examples 15, 19, or 47 were orally administered to 6-week-old ICR male and female mice in an amount of 1000 mg/kg.

SMILES | Rate of inhibition (%) (rat aorta; compound 1 x 10⁻⁸ M) | Rate of inhibition (%) (rat aorta; compound 3 x 10⁻⁸ M) | deaths (ICR male mice) | deaths (ICR male and female mice)
CCCCc1nc(C)cc(=O)n1Cc1ccc(-c2ccccc2-c2nnn[nH]2)cc1 [Comparative compound A, 2-butyl-6-methyl-3-[2'-(1H-tetrazol-5-yl)biphenyl-4-yl]methylpyrimidin-4-one, reference compound] | 8 | 37 | – | –
CCCCc1nc(C)c(Cc2ccccc2)c(=O)n1Cc1ccc(-c2ccccc2-c2nnn[nH]2)cc1 [Comparative compound B, 5-benzyl-2-butyl-6-methyl-3-[2'-(1H-tetrazol-5-yl)biphenyl-4-yl]methylpyrimidin-4-one, reference compound] | 5 | 32 | – | –
CCCc1nc(C)c(Cc2ccc(CO)cc2)c(=O)n1Cc1ccc(-c2ccccc2-c2nnn[nH]2)cc1 [Example 3, 5-(4-hydroxymethylbenzyl)-6-methyl-2-propyl-3-[2'-(1H-tetrazol-5-yl)biphenyl-4-yl]methylpyrimidin-4-one] | 78 | 98 | No deaths were observed | –
CCCc1nc(C)c(Cc2ccc(COC)cc2)c(=O)n1Cc1ccc(-c2ccccc2-c2nnn[nH]2)cc1 [Example 4, 5-(4-methoxymethylbenzyl)-6-methyl-2-propyl-3-[2'-(1H-tetrazol-5-yl)biphenyl-4-yl]methylpyrimidin-4-one] | 36 | 94 | – | –
CCc1nc(C)c(Cc2cccc(CO)c2)c(OCc2ccc(-c3ccccc3-c3nnn[nH]3)cc2)n1 [Example 15, 2-ethyl-5-(3-hydroxymethylbenzyl)-6-methyl-4-[2'-(1H-tetrazol-5-yl)biphenyl-4-yl]methoxypyrimidine] | – | – | – | No deaths were observed
CCCc1nc(C)c(Cc2cccc(CO)c2)c(=O)n1Cc1ccc(-c2ccccc2-c2nnn[nH]2)cc1 [Example 19, 5-(3-hydroxymethylbenzyl)-6-methyl-2-propyl-3-[2'-(1H-tetrazol-5-yl)biphenyl-4-yl]methylpyrimidin-4-one] | 100 | 100 | No deaths were observed | No deaths were observed
CCCc1nc(C)c(Cc2cccc(COC)c2)c(=O)n1Cc1ccc(-c2ccccc2-c2nnn[nH]2)cc1 [Example 20, 5-(3-methoxymethylbenzyl)-6-methyl-2-propyl-3-[2'-(1H-tetrazol-5-yl)biphenyl-4-yl]methylpyrimidin-4-one] | 100 | 100 | No deaths were observed | –
CCCCc1nc(C)c(Cc2cccc(CO)c2)c(=O)n1Cc1ccc(-c2ccccc2-c2nnn[nH]2)cc1 [Example 23, 2-butyl-5-(3-hydroxymethylbenzyl)-6-methyl-3-[2'-(1H-tetrazol-5-yl)biphenyl-4-yl]methylpyrimidin-4-one] | 95 | 100 | No deaths were observed | –
CCc1nc(C)nc(OCc2ccc(-c3ccccc3-c3nnn[nH]3)cc2)c1Cc1cccc(CO)c1 [Example 47, 6-ethyl-5-(3-hydroxymethylbenzyl)-2-methyl-4-[2'-(1H-tetrazol-5-yl)biphenyl-4-yl]methoxypyrimidine] | – | – | – | No deaths were observed
